{"source": "patent EP4682144A1", "about": "“SOLID FORM OF PYRROLIDONE DERIVATIVE AS GLUCOKINASE ACTIVATOR” (Hua Medicine (Shanghai) Ltd., priority 2023, dated 2024)", "assay_type_in_all_cases": "physicochemical", "key": {"[1]": {"assay": "Dissolution stability in different pH and biologically relevant media (XRPD before and after)", "conditions": "pH 1.0, 1.2, 3.0, 4.5, 5.0, 6.8, 7.0, 7.4, 9.0, FaSSGF (pH 1.6), FaSSIF (pH 6.5), FeSSIF (pH 5.0)"}, "[2]": {"assay": "Forced degradation stability test (heat, humidity and heat, light)", "procedure": "Crystal form A of the free state was placed under the following different conditions for the forced degradation stability test: • About 10 mg of the sample powder was weighed into a vial and placed under the conditions of 50 °C, 80°C, and 40 °C/75%RH (unsealed) for 1 day, 2 weeks, and 4 weeks, respectively. And then, the thermal stability was evaluated. • About 10 mg of the sample powder was weighed and placed in a transparent vial, an amber vial, and a transparent vial sealed with aluminum foil, respectively. Those vials were placed in a light box for 10 days, with a total illumination of 1.2×10^6 Lux·hr and a near-UV energy not less than 200w·hr/m^2, for photostability evaluation.\nThe samples were taken at each time point for HPLC and XRPD analysis to evaluate the chemical and physical stability."}, "[3]": {"assay": "Preliminary solubility test in solvents at room temperature", "conditions": "listed as crystal form A of the free state", "procedure": "Table 10 Solubility range of the starting material sample at room temperature\nThe solubility range in the corresponding solvent was calculated based on the mass of the sample and the volume of the added solvent, as shown in Table 28. The data were used as a base to guide the selection of solvent in screening tests. Table 28 Preliminary solubility of crystal form A of the free state at room temperature\nThe solubility range in the corresponding solvent was calculated based on the mass of the sample and the volume of the added solvent, as shown in Table 35. The data were used as a base to guide the selection of solvent in the screening tests."}, "[4]": {"assay": "Dynamic vapour sorption (DVS) test", "description": "A certain amount of powder was taken and put into a sample pan, and hygroscopicity of the sample was evaluated with DVS according to the following instrument method:"}, "[5]": {"assay": "High-humidity stability test (90% RH, HPLC)", "source_text": "(§1) The resulting sample was sampled at day 6, day 14 and day 34 for HPLC analysis."}, "[6]": {"assay": "High-temperature stability test (60°C, HPLC)", "source_text": "as §1"}, "[7]": {"assay": "Photostability test (direct sunlight, HPLC)", "source_text": "The resulting sample was sampled at day 4 and day 15 for HPLC analysis."}}, "data": [{"smiles": "CC(C)C[C@@H](C(=O)Nc1ccn(C[C@@H](O)COC(=O)c2cccnc2)n1)N1CC(Oc2ccccc2Cl)=CC1=O", "note": "[Free state crystal form A, (R)-3-(3-((S)-2-(4-(2-chlorophenoxy)-2-oxo-2,5-dihydro-1H-pyrrol-1-yl)-4-methylpentanamido)-1H-pyrazol-1-yl)-2-hydroxypropyl nicotinate]", "values": [{"measurement": "crystal form before and after solubility test (XRPD)", "setting": "[1]", "result": "does not change"}, {"measurement": "Purity, %", "setting": "[2]; 40°C/75%RH (unsealed), 2 weeks, HPLC", "result": 99.15, "unit": "%"}, {"measurement": "Purity, %", "setting": "[2]; 40°C/75%RH (unsealed), 4 weeks, HPLC", "result": 99.15, "unit": "%"}, {"measurement": "Purity, %", "setting": "[2]; 40°C/75%RH (unsealed), 24 hours, HPLC", "result": 99.09, "unit": "%"}, {"measurement": "Purity, %", "setting": "[2]; 50°C, 2 weeks, HPLC", "result": 99.10, "unit": "%"}, {"measurement": "Purity, %", "setting": "[2]; 50°C, 4 weeks, HPLC", "result": 99.11, "unit": "%"}, {"measurement": "high-temperature and humidity-thermal stability", "setting": "[2]; 50 °C, 80°C, 40 °C/75%RH (unsealed)", "result": "excellent"}, {"measurement": "crystalline form under forced degradation test conditions (XRPD)", "setting": "[2]; 50 °C, 80°C, 40 °C/75%RH for 1 day, 2 weeks, 4 weeks, light box 10 days", "result": "does not change"}, {"measurement": "Purity, %", "setting": "[2]; 50°C, 24 hours, HPLC", "result": 99.08, "unit": "%"}, {"measurement": "Purity, %", "setting": "[2]; 80°C, 2 weeks, HPLC", "result": 99.12, "unit": "%"}, {"measurement": "Purity, %", "setting": "[2]; 80°C, 4 weeks, HPLC", "result": 99.14, "unit": "%"}, {"measurement": "Purity, %", "setting": "[2]; 80°C, 24 hours, HPLC", "result": 99.12, "unit": "%"}, {"measurement": "Purity, %", "setting": "[2]; Light-amber vial, 10 days, light box, […]10^6 Lux·hr", "result": 99.17, "unit": "%"}, {"measurement": "Purity, %", "setting": "[2]; Light-transparent vial sealed with aluminum foil, 10 days, light box, […]10^6 Lux·hr", "result": 99.17, "unit": "%"}, {"measurement": "Purity, %", "setting": "[2]; Light-transparent vial, 10 days, light box, […]10^6 Lux·hr", "result": 99.10, "unit": "%"}, {"measurement": "Purity, %", "setting": "[2]; Starting, 0h, HPLC", "result": 99.10, "unit": "%"}, {"measurement": "effect of light on the stability", "setting": "[2]; light box 10 days, […]10^6 Lux·hr", "result": "no effect"}, {"measurement": "Solubility (mg/mL)", "setting": "[3]; 1,4-Dioxane, room temperature", "result": "S>40.0 mg/mL"}, {"measurement": "Solubility (mg/mL)", "setting": "[3]; Acetone, room temperature", "result": "S>40.0 mg/mL"}, {"measurement": "Solubility (mg/mL)", "setting": "[3]; CHCl3, room temperature", "result": "S>40.0 mg/mL"}, {"measurement": "Solubility (mg/mL)", "setting": "[3]; DCM, room temperature", "result": "S>40.0 mg/mL"}, {"measurement": "Solubility (mg/mL)", "setting": "[3]; DMAc, room temperature", "result": "S>40.0 mg/mL"}, {"measurement": "Solubility (mg/mL)", "setting": "[3]; DMSO, room temperature", "result": "S>42.0 mg/mL"}, {"measurement": "Solubility (mg/mL)", "setting": "[3]; H2O, room temperature", "result": "S<1.0 mg/mL"}, {"measurement": "Solubility (mg/mL)", "setting": "[3]; MTBE, room temperature", "result": "S<1.0 mg/mL"}, {"measurement": "Solubility (mg/mL)", "setting": "[3]; MeOH, room temperature (25±3 °C)", "result": "S>42.0 mg/mL"}, {"measurement": "Solubility (mg/mL)", "setting": "[3]; NMP, room temperature", "result": "S>40.0 mg/mL"}, {"measurement": "Solubility (mg/mL)", "setting": "[3]; THF, room temperature", "result": "S>40.0 mg/mL"}, {"measurement": "Solubility (mg/mL)", "setting": "[3]; Toluene, room temperature", "result": "S<1.0 mg/mL"}, {"measurement": "Solubility (mg/mL)", "setting": "[3]; n-Heptane, room temperature", "result": "S<1.1 mg/mL"}, {"measurement": "Water sorption capacity at 80%RH, %", "setting": "[4]; DVS, 25 °C, 80%RH", "result": 0.3556, "unit": "%"}, {"measurement": "Water sorption capacity at 90%RH, %", "setting": "[4]; DVS, 25 °C, 90%RH", "result": 0.4782, "unit": "%"}, {"measurement": "Water sorption capacity at 95%RH, %", "setting": "[4]; DVS, 25 °C, 95%RH", "result": 0.6525, "unit": "%"}, {"measurement": "moisture-induced weight gain", "setting": "[4]; relative humidity of 95%", "result": "less than 0.7%"}, {"measurement": "moisture-induced weight gain", "setting": "[4]; relative humidity of less than or equal to 90%, listed as crystal form A of the free state", "result": "less than 0.5%"}, {"measurement": "Purity (Area%)", "setting": "[5]; 0 hour", "result": 98.17, "unit": "Area%"}, {"measurement": "stability at high humidity", "setting": "[5]; 90% relative humidity for 14 days", "result": "still stable"}, {"measurement": "Purity (Area%)", "setting": "[5]; 90%RH, Day 6, without cover", "result": 98.99, "unit": "Area%"}, {"measurement": "Purity (Area%)", "setting": "[5]; 90%RH, Day 14, without cover", "result": 99.09, "unit": "Area%"}, {"measurement": "Purity (Area%)", "setting": "[6]; 0h", "result": 98.17, "unit": "Area%"}, {"measurement": "stability at high temperature", "setting": "[6]; 60°C for 14 days", "result": "still stable"}, {"measurement": "Purity (Area%)", "setting": "[6]; 60°C, Day 6, without cover", "result": 99.03, "unit": "Area%"}, {"measurement": "Purity (Area%)", "setting": "[6]; 60°C, Day 14, without cover", "result": 99.11, "unit": "Area%"}, {"measurement": "Purity (Area%)", "setting": "[7]; 0 hour", "result": 98.17, "unit": "Area%"}, {"measurement": "Purity (Area%)", "setting": "[7]; Photostability Day 4, direct sunlight", "result": 99.07, "unit": "Area%"}, {"measurement": "Purity (Area%)", "setting": "[7]; Photostability Day 15, direct sunlight", "result": 99.10, "unit": "Area%"}, {"measurement": "stability under sunlight", "setting": "[7]; sunlight for 15 days", "result": "still stable"}]}]}
